Read-outs that look alike come from different tables or passages of the source. Marks after values point to notes of the source that are not given here. Ends that are not written are not given here.
Columns and labels:
HDAC1 = target: T1, HDAC1 (Homo sapiens, UniProt Q13547); assay: HDAC1 inhibitory activity assay (inhibitor screening kit, fluorescence); type: biochemical; conditions: for HDAC1 IC50 attained or not, in words: peptide 0.05–2 g/L tested; for IC50: peptide 0.05–2 g/L, 30 min at 37 °C, fluorescence, triplicate
T1 construct: purchased Abnova
T1 sequence (Q13547 whole entry): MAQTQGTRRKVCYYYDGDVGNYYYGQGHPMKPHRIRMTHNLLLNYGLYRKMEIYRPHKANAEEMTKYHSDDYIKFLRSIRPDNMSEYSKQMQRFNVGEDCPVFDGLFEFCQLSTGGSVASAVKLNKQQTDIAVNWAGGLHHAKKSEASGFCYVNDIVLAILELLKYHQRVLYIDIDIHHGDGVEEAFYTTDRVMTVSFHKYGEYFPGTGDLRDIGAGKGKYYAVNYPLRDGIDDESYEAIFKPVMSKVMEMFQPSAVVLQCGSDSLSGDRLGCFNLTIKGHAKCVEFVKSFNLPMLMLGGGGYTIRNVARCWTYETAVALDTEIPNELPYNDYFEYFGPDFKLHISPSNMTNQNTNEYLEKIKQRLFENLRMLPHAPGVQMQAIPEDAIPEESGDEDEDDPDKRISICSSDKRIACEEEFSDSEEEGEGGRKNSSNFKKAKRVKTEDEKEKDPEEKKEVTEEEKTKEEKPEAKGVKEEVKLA
Procedure: HDAC1 activity was determined using the HDAC1 inhibitor screening assay kit (Abnova, Taipei, Taiwan). The assay was performed according to the manufacture instruction manual. Briefly, the sample wells were added 140 µL assay buffer, 10 µL diluted HDAC1, and 10 µL peptide samples (0.05–2 g/L). The trichostatin A was set as the positive control, and the sample buffer was set as the negative control. We initiated the reactions by adding 10 µL of HDAC substrate to all the wells being used. Cover the plate with the plate cover and incubate on a shaker for 30 min at 37 °C. Remove the plate cover and add 40 µL of developer. Cover the plate with the plate cover and incubate for 15 min at room temperature. Remove the plate cover and read the fluorescence using an excitation wavelength of 340–360 nm and an emission wavelength of 440–465 nm. IC50 values were calculated using GraphPad Prism 8 software. Analyses were performed in triplicate with at least three replicates per concentration.

Caco-2 cells = type: cell-based, human; conditions: for Viable Cells (%): SD; for inhibition of Caco-2 proliferation: human, Caco-2, 72 h
Procedure: The human CRC cell line Caco-2 was obtained from American Type Cell Collection (ATCC, Manassas, VA, USA) and cultured in MEM medium supplemented with 20% FBS, 1% penicillin, and 1% streptomycin. Cells were maintained at 37 °C in a humidified incubator containing 5% CO2 and 95% air. The medium was changed every 24 h. All cells were assayed within 5–15 passages. Utilizing the CCK-8 kit (Biorigin, Beijing, China), the toxicity test was first performed. Caco-2 cells (100 µL) were incubated in the 96-well plate (1 × 10^5 cells/well) for 24 h, then the original medium was replaced with fresh medium containing different concentrations of QP (1–8 g/L), QPH (1–8 g/L), fraction MW < 5 kDa (1–8 g/L), fraction MW > 5 kDa (1–8 g/L), and selected peptides ranging from 0 to 2 g/L. After 24 h co-cultivation, the medium was discarded and washed with PBS 2 times, and a fresh medium with 10% CCK-8 reagent was added to each cell. Another 1 h later, the absorbance (OD value) was determined by an enzyme-labeling instrument at a wavelength of 450 nm. Experiments were performed in triplicate with at least three replicates per concentration, and results were expressed as percentage of negative control (non-treated Caco-2 cells).
For the proliferation experiments, Caco-2 cells were seeded into 96-well plates at a density of 2.5 × 10^4 per well for 24 h, the incubation was continued for 72 h. After that, the subsequent washing and CCK-8 reaction process were the same as performed in the toxicity test. Finally, the absorbance was also detected at 450 nm. Analyses were performed in triplicate with at least three replicates per concentration, and results were also shown as the percentage of non-treated Caco-2 cells.

colon cancer cells = conditions: read-out: 50% inhibition; cited from earlier work
Source text: Histone acetylation and deacetylation are important for the regulation of gene expression. The family of HDACs includes 18 members, and class I HDACs (HDAC 1, 2, 3, and 8) is considered to be the most important ones. […] For example, HDAC1 expression was increased in colorectal cancer and gastric cancer. In contrast, HDAC1 knockdown causes cell cycle arrest, reduces cancer cell viability, and induces cancer cell apoptosis. Moreover, pharmacological inhibitors ...

[1] = Caco-2, CCK-8, peptide 1 g/L, % of non-treated cells, mean ± SD
[2] = Caco-2, CCK-8, peptide 1 × 10^−1 g/L, % of non-treated cells, mean ± SD
[3] = Caco-2, CCK-8, peptide 2 g/L, % of non-treated cells, mean ± SD
[4] = Caco-2, CCK-8, peptide 5 × 10^−1 g/L, % of non-treated cells, mean ± SD

Substance	HDAC1 IC50 attained or not, in words (HDAC1)	IC50 (HDAC1)	Viable Cells (%) (Caco-2 cells; 24 h, 0.1 g/L)	Viable Cells (%) (Caco-2 cells; 24 h, 0.5 g/L)	Viable Cells (%) (Caco-2 cells; 24 h, 1 g/L)	Viable Cells (%) (Caco-2 cells; 24 h, 2 g/L)	inhibition of Caco-2 proliferation (Caco-2 cells; 1 g/L)	Viable Cells (%) (Caco-2 cells; [1])	Viable Cells (%) (Caco-2 cells; [2])	Viable Cells (%) (Caco-2 cells; [3])	Viable Cells (%) (Caco-2 cells; [4])	IC50 (colon cancer cells)
FGGGTLGHPW [quinoa peptide identified from QPH fraction < 5 kDa]								90.41 ± 0.69 ^d %	97.09 ± 0.74 ^c %	89.72 ± 0.60 ^c %	91.65 ± 0.43 ^c %	
NSLSLPNFHPFPR [quinoa peptide identified from QPH fraction < 5 kDa]								86.55 ± 0.58 ^e %	100.79 ± 0.52 ^a %	83.56 ± 0.71 ^d %	92.78 ± 2.20 ^c %	
SVENWFPLPR [quinoa peptide identified from QPH fraction < 5 kDa]								92.14 ± 0.69 ^c %	99.43%	91.04 ± 1.53 ^c %	95.50 ± 3.60 ^b %	
lunasin												61.7 µM
GLESPNYPWPH [quinoa peptide identified from QPH fraction < 5 kDa]								97.40 ± 0.73 ^b %	99.75 ± 1.06 ^a %	97.70%	99.32 ± 1.05 ^a %	
HGSLGFLPR [quinoa peptide identified from QPH fraction < 5 kDa]								96.81 ± 0.88 ^b %	97.35 ± 1.03 ^c %	95.80 ± 0.62 ^b %	96.91%	
NSWGPNWGDHG [quinoa peptide identified from QPH fraction < 5 kDa]								99.58 ± 1.08 ^a %	98.87%	97.92 ± 1.41 ^a %	98.60 ± 2.28 ^a %	

Continued, in another order:

HDAC1 IC50 attained or not, in words (HDAC1)	IC50 (HDAC1)	Substance	Viable Cells (%) (Caco-2 cells; 24 h, 0.1 g/L)	Viable Cells (%) (Caco-2 cells; 24 h, 0.5 g/L)	Viable Cells (%) (Caco-2 cells; 24 h, 1 g/L)	Viable Cells (%) (Caco-2 cells; 24 h, 2 g/L)	inhibition of Caco-2 proliferation (Caco-2 cells; 1 g/L)	Viable Cells (%) (Caco-2 cells; [1])	Viable Cells (%) (Caco-2 cells; [2])	Viable Cells (%) (Caco-2 cells; [3])	Viable Cells (%) (Caco-2 cells; [4])	IC50 (colon cancer cells)
can reach to IC50 value	1370 µM	NWFPLPR [NWFPLPR]	92.86 ± 1.10 ^d %	79.99 ± 0.86 ^e %	64.02 ± 1.39 ^j %	63.18 ± 0.83 ^i %	more than 30%					
can reach to IC50 value	1090 µM	FHPFPR [FHPFPR]	90.04 ± 1.26 ^e %	75.46 ± 0.86 ^f %	51.41 ± 0.80 ^k %	50.82 ± 0.76 ^j %	more than 30%					
can reach to IC50 value		NIFRPF [quinoa peptide identified from QPH fraction < 5 kDa]						70.29 ± 0.56 ^h %	100.10 ± 1.03 ^a %	70.55 ± 2.01 ^g %	85.11 ± 0.66 ^d %	
can reach to IC50 value		SLPNFHPFPR [quinoa peptide identified from QPH fraction < 5 kDa]						78.51 ± 0.26 ^g %	97.79%	78.00 ± 0.80 ^f %	87.21 ± 0.32 ^d %	
can reach to IC50 value	1650 µM	HYNPYFPGGA [HYNPYFPGGA]	93.69 ± 0.68 ^d %	82.34 ± 1.36 ^e %	67.44 ± 1.26 ^i %	67.10 ± 1.87 ^h %	more than 30%					
can reach to IC50 value		INNIFRPF [quinoa peptide identified from QPH fraction < 5 kDa]						80.44 ± 0.68 ^f %	100.40 ± 1.29 ^a %	80.61 ± 0.41 ^e %	92.05 ± 1.07 ^c %	
can reach to IC50 value		PNFHPFPR [PNFHPFPR]	90.46 ± 1.43 ^e %	77.26 ± 1.65 ^f %	65.32 ± 1.45 ^j %	61.67 ± 1.64 ^i %	more than 30%					

From article PMC8774364, “Anti-Colon Cancer Activity of Novel Peptides Isolated from In Vitro Digestion of Quinoa Protein in Caco-2 Cells” (Foods, 2022)
